Values quoted from earlier work as cited in patent publication US20070232669A1, “N-phenylbenzotriazolyl c-kit inhibitors” (priority 2006, published 2007).
Counter-ions that a name gives are not always drawn.

Columns and labels:
[1] = test system: MO7e human leukemia cells
[2] = test system: MO7e human leukemia cells; remark: listed apart in the source

Structure (SMILES): Cc1ccc(NC(=O)c2ccc(CN3CCN(C)CC3)cc2)cc1Nc1nccc(-c2cccnc2)n1 [Gleevec, imatinib mesylate]
- Kit ligand-stimulated growth of MO7e human leukemia cells [1]: inhibited
- GM-CSF stimulated growth of MO7e human leukemia cells [2]: not affected
